In brackets after ≈: the same amount, converted by molar mass.
Columns and labels:
Assay type in all cases: physicochemical
[1] = Solubility of cocrystals in water at room temperature, HPLC area; conditions: for Solubility (HPLC area of bilastine), run _1 / Solubility (HPLC area of bilastine), run _2 / solubility on dissolution of cocrystal in water: water; for Solubility (HPLC area of bilastine), run _1 / Solubility (HPLC area of bilastine), run _2: rt; for pH_1 / pH_2: pH of the solution; for solubility on dissolution of cocrystal in water: room temperature, 400 mg in 24 ml
Method: 25 μL sample were injected.
Solubility of cocrystals was determined by stirring the product in water at room temperature (400 mg of product in 24 ml of water, 60 vol.). The product was previously milled in order to reduce the crystal size effect. A sample is collected and filtered using a sintered funnel (n° 3) periodically (30, 60, 180 min and after overnight). The filtered solid was immediately analyzed by XRPD, while the mother liquors are filtered through a 0.22 um filter. […] The concentration of Bilastine is determined by HPLC area (in some experiments where a high solubility was detected the mother liquor was diluted by a factor 10). This concentration is compared with the bilastine concentration obtained in the same conditions in order to determine a relative solubility.

[2] = Aqueous solubility of bilastine in the pH range 5-8; conditions: water, aqueous buffer
Method: The above benzimidazole compounds with selective H1 antihistaminic activity present low solubility in water, which impedes the development of pharmaceutically acceptable means of administering said compounds in liquid form. For example, the solubility of bilastine in the pH range 5-8 is around 500 μg/mL.

[3] = Solubility of bilastine after heating the slurry with acid at 95° C. and cooling (Method 2), HPLC-PDA; conditions: for solubility after 24 h: pH 4.3, after 24 h; for solubility at 2 h: aqueous buffer, thermodynamic from solid, pH 4.3, 95° C. 2 h, filtrate stood overnight at room temperature
Method: Alternative Method for Determining the Solubility
HPLC-PDA analysis was carried out using a Acquity BEH C18 1.7 μm 100×2.1 mm column at a temperature of 40° C. The isocratic mobile phase was composed of acetonitrile/methanol/ammonium bicarbonate 10 mM pH 8.7 (20.2/24.8/55.0%) (% v/v), at a flow rate of 0.6 mL/min. Samples were centrifuged 10 minutes at 4000 rpm at 20° C., and supernatant diluted to approx. 20-40 μg/mL in water. These diluted samples were kept at 18° C. until analysis. Quantization was performed at 220 nm by area comparison against a calibration curve obtained with bilastine working standard.
Method 2. A slurry of bilastine (100 mg) and the organic carboxylic acid (amount needed to obtain a pH of 4.0-4.5) in water (10 ml) was prepared. The mixture was stirred at 95° C. for 2 h and filtered. The filtrate was cooled to room temperature and allowed to stand overnight.
(§1) Citric acid was added to a slurry of 100 mg of bilastine in 10 mL of water to get a pH of 4.3 and the mixture was heated at 95° C. for 2 h. Then the solid was filtered off and the filtrate was allowed to stand overnight at room temperature. The solid was separated by centrifugation and the concentration of bilastine was determined by HPLC-PDA.
as §1, with “D,L-Tartaric” for “Citric”
as §1, with “Hydrochloric” for “Citric”, “acid 3.7% v/v” for “acid”

Compound	Solubility (HPLC area of bilastine), run _1 ([1]; 0 min) [area counts]	Solubility (HPLC area of bilastine), run _2 ([1]; 0 min) [area counts]	Solubility (HPLC area of bilastine), run _1 ([1]; 30 min) [area counts]	Solubility (HPLC area of bilastine), run _2 ([1]; 30 min) [area counts]	Solubility (HPLC area of bilastine), run _1 ([1]; 60 min) [area counts]	Solubility (HPLC area of bilastine), run _2 ([1]; 60 min) [area counts]	Solubility (HPLC area of bilastine), run _1 ([1]; 180 min) [area counts]	Solubility (HPLC area of bilastine), run _2 ([1]; 180 min) [area counts]	Solubility (HPLC area of bilastine), run _1 ([1]; 1080 min) [area counts]	Solubility (HPLC area of bilastine), run _2 ([1]; 1080 min) [area counts]	pH_1 ([1]; run 1, 30 min)	pH_1 ([1]; run 1, 60 min)	pH_1 ([1]; run 1, 180 min)	pH_1 ([1]; run 1, 1080 min)	pH_2 ([1]; run 2, 30 min)	pH_2 ([1]; run 2, 60 min)	pH_2 ([1]; run 2, 180 min)	pH_2 ([1]; run 2, 1080 min)	solubility on dissolution of cocrystal in water [1]	also measured
CCOCCn1c(C2CCN(CCc3ccc(C(C)(C)C(=O)O)cc3)CC2)nc2ccccc21.O=C(O)CCCC(=O)O [GL(V)]	0	0	61517	62303	60930	60916	60628	61316	59755	60769	4.00	3.99	3.93	3.95	3.97	3.95	3.94	3.97	60000 area counts	
CCOCCn1c(C2CCN(CCc3ccc(C(C)(C)C(=O)O)cc3)CC2)nc2ccccc21.CCOCCn1c(C2CCN(CCc3ccc(C(C)(C)C(=O)O)cc3)CC2)nc2ccccc21.O=C(O)CCCC(=O)O [GL(IV)]	0	0	61110	61019	61558	61328	60841	62159	48734	55535	4.25	4.22	4.06	4.00	4.25	4.22	4.11	3.98	around 60000 area counts	
CCOCCn1c(C2CCN(CCc3ccc(C(C)(C)C(=O)O)cc3)CC2)nc2ccccc21.CCOCCn1c(C2CCN(CCc3ccc(C(C)(C)C(=O)O)cc3)CC2)nc2ccccc21.O=C(O)CCCC(=O)O [GL(I)]	0	0	49106	48462	48363	48871	50828	50771	48315	47972	4.42	4.31	4.08	4.11	4.34	4.3	4.29	3.97	48000 area counts	
CCOCCn1c(C2CCN(CCc3ccc(C(C)(C)C(=O)O)cc3)CC2)nc2ccccc21 [bilastine, 2-[4-(2-{4-[1-(2-Ethoxyethyl)-1H-benzimidazol-2-yl]-1-piperidinyl}ethyl)phenyl]-2-methylpropanoic acid]																				solubility [2]: ~500 µg/mL (≈ 1.08 mM); solubility after 24 h ([3]; citric acid): maintained; concentration of bilastine ([3]; hydrochloric acid (comparative), pH 4.3, compared with the pH-dependent solubility of FIG. 1): in accordance with its pH-dependent solubility; solubility after 24 h ([3]; tartaric acid): maintained; solubility at 2 h ([3]; water acidified with D,L-tartaric acid, D,L-tartaric acid): 2700 µg/mL (≈ 5.82 mM); solubility at 2 h ([3]; water acidified with citric acid, citric acid): 2700 µg/mL (≈ 5.82 mM)

Reference: patent US20180344854A1, “SUPERSATURATED COMPOSITIONS OF BENZIMIDAZOLE COMPOUNDS” (Faes Farma, S.A., priority 2015, published 2018)
